Results: ChEMBL document CHEMBL1127364, “L-735,524: the design of a potent and orally bioavailable HIV protease inhibitor” (J Med Chem, 1994)

Tests used:
MT4 [1] = assay: Compound was evaluated for the inhibition of the spread of HIV-1 IIIb infection in MT-4 human T-lymphoid cells; value ranges from 50-100 nM; assay type: functional; conditions: read-out: CIC95
[2] = target: Human immunodeficiency virus type 1 protease (Human immunodeficiency virus 1, UniProt Q72874); assay: Evaluated for the inhibition of HIV protease
[3] = target: Human immunodeficiency virus type 1 protease (Human immunodeficiency virus 1) (UniProt Q72874); assay: Inhibition of the spread of HIV-1 IIIb infection in MT-4 human T-lymphoid cells; assay type: functional, cell-based
[4] = Compound was evaluated for maximum plasma concentration levels in dogs at 10 mg/kg (in 0.05M citric acid solution) po; conditions: dog
[5] = Partition coefficient of the compound was evaluated; assay type: physicochemical; conditions: octanol/water
[6] = Compound was evaluated for the solubility at pH value of 7.4; assay type: physicochemical; conditions: pH 7.4
MT4 [7] = assay: Compound was evaluated for the inhibition of the spread of HIV-1 IIIb infection in MT-4 human T-lymphoid cells; value ranges from […]-[…] nM; assay type: functional; conditions: read-out: CIC95
MT4 [8] = assay: Compound was evaluated for the inhibition of the spread of HIV-1 IIIb infection in MT-4 human T-lymphoid cells; value ranges from 25-50 nM; assay type: functional; conditions: read-out: CIC95
MT4 [9] = assay: Compound was evaluated for the inhibition of the spread of HIV-1 IIIb infection in MT-4 human T-lymphoid cells; value ranges from 25-100 nM; assay type: functional; conditions: read-out: CIC95

| SMILES | IC50 [2] [nM] | IC95 [3] [nM] | also measured |
| --- | --- | --- | --- |
| CC(C)(C)NC(=O)[C@@H]1CN(Cc2ccncc2)CCN1C[C@@H](O)C[C@@H](Cc1ccccc1)C(=O)N[C@@H]1c2ccccc2C[C@H]1O | 0.39 |  | IC95 (MT4 [1]): 50 nM |
| CC(C)(C)NC(=O)[C@@H]1CCCCN1C[C@@H](O)C[C@@H](Cc1ccccc1)C(=O)N[C@@H]1c2ccccc2C[C@H]1O | 80 |  |  |
| CC(C)(C)NC(=O)[C@@H]1CN(C(=O)c2cc3ccccc3oc2=O)CCN1C[C@@H](O)C[C@@H](Cc1ccccc1)C(=O)N[C@@H]1c2ccccc2C[C@H]1O | 0.13 | 50 |  |
| Cc1nc(S(=O)(=O)N2CCN(C[C@@H](O)C[C@@H](Cc3ccccc3)C(=O)N[C@@H]3c4ccccc4C[C@H]3O)[C@H](C(=O)NC(C)(C)C)C2)c(C)s1 | 0.16 | 200 |  |
| CC(C)(C)NC(=O)[C@@H]1CN(C(=O)OCc2ccccc2)CCN1C[C@@H](O)C[C@@H](Cc1ccccc1)C(=O)NC1c2ccccc2C[C@H]1O (single isomer, unassigned) | 0.36 | 100 | Cmax [4]: < 100 nM; logP [5]: 4.67; solubility [6]: < 1 µg/mL |
| CC(C)(C)NC(=O)[C@@H]1CN(Cc2ccccc2S)CCN1C[C@@H](O)C[C@@H](Cc1ccccc1)C(=O)N[C@@H]1c2ccccc2C[C@H]1O | 0.54 | 25 |  |
| CC(C)(C)NC(=O)[C@@H]1CNCCN1C[C@@H](O)C[C@@H](Cc1ccccc1)C(=O)N[C@@H]1c2ccccc2C[C@H]1O | 38 | 3000 |  |
| CC(C)(C)NC(=O)[C@@H]1CC2CCCCC2CN1C[C@@H](O)C[C@@H](Cc1ccccc1)C(=O)N[C@@H]1c2ccccc2C[C@H]1O (some centres undefined) | 7.8 | 400 |  |
| CC(C)(C)NC(=O)[C@@H]1CN(Cc2ccccc2)CCN1C[C@@H](O)C[C@@H](Cc1ccccc1)C(=O)N[C@@H]1c2ccccc2C[C@H]1O | 0.3 | 50 |  |
| CC(C)(C)NC(=O)[C@@H]1CN(CCOCc2ccccc2)CCN1C[C@@H](O)C[C@@H](Cc1ccccc1)C(=O)N[C@@H]1c2ccccc2C[C@H]1O | 1.03 | 100 |  |
| CC(C)(C)NC(=O)[C@@H]1CN(CC(=O)OC(C)(C)C)CCN1C[C@@H](O)C[C@@H](Cc1ccccc1)C(=O)N[C@@H]1c2ccccc2C[C@H]1O | 0.81 | 100 |  |
| CC(C)(C)NC(=O)[C@@H]1CN(S(=O)(=O)c2cccc3cccnc23)CCN1C[C@@H](O)C[C@@H](Cc1ccccc1)C(=O)N[C@@H]1c2ccccc2C[C@H]1O | 0.013 |  | Cmax [4]: < 100 nM; IC95 (MT4 [7]): 12.5 nM; logP [5]: 3.7; solubility [6]: < 1 µg/mL |
| CCN1CCN(C[C@@H](O)C[C@@H](Cc2ccccc2)C(=O)N[C@@H]2c3ccccc3C[C@H]2O)[C@H](C(=O)NC(C)(C)C)C1 | 6.1 | > 400 |  |
| CC(C)(C)NC(=O)[C@@H]1CN(Cc2ccc(F)cc2F)CCN1C[C@@H](O)C[C@@H](Cc1ccccc1)C(=O)N[C@@H]1c2ccccc2C[C@H]1O | 0.31 |  | IC95 (MT4 [8]): 25 nM; Cmax [4]: 730 nM; logP [5]: 3.69 |
| CC(C)(C)NC(=O)[C@@H]1C[C@H](Oc2ccc3ccccc3c2)CN1C[C@@H](O)C[C@@H](Cc1ccccc1)C(=O)N[C@@H]1c2ccccc2C[C@H]1O | 15 | > 400 |  |
| CC(C)(C)NC(=O)[C@@H]1CN(Cc2cccnc2)CCN1C[C@@H](O)C[C@@H](Cc1ccccc1)C(=O)NC1c2ccccc2C[C@H]1O.O (single isomer, unassigned) |  |  | Cmax [4]: 11400 nM; IC95 (MT4 [9]): 25 nM; logP [5]: 2.92 |
| CC(C)(C)NC(=O)[C@@H]1CCCN1C[C@@H](O)C[C@@H](Cc1ccccc1)C(=O)N[C@@H]1c2ccccc2C[C@H]1O | 347 | 1500 |  |
| CC(C)(C)NC(=O)[C@@H]1CN(S(=O)(=O)c2cccnc2)CCN1C[C@@H](O)C[C@@H](Cc1ccccc1)C(=O)N[C@@H]1c2ccccc2C[C@H]1O | 0.3 | 200 |  |
